# From patent US6911330B1, “Recombinant secoisolariciciresinol dehydrogensase, and methods of use” (Washington State University Research Foundation, priority 1998, dated 2005)
# T1: pinoresinol/lariciresinol reductase (Forsythia intermedia, UniProt P93143)
# T1 construct: host or cells: E. coli, pSBETa vector
# T1 sequence (P93143 1-312): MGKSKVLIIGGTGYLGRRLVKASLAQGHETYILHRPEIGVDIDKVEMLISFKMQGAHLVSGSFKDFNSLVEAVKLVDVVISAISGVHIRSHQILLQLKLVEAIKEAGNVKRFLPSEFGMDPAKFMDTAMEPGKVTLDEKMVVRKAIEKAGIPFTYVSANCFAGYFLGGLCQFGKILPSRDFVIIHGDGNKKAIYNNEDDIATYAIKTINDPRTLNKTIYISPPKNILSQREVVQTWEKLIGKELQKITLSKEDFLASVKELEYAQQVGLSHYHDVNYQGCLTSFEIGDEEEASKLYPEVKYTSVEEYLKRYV
# B1: SMDEHY631: protein (SEQ ID NO:10) encoded by cDNA clone SEQ ID NO:9 (protein)
# chain: MATSQLRTAFARRLEGKVALITGGASGVGEVTAKLFSQHGAKVAIADVQDELGHSVVEAIGLSNSTYIHCDVTNEDGVKNAVDNTVSTYGKLDIMFNNAGISDPYKPRVIDNEKADFERVLSVNVTGVFLFMKHAARIMVPARSGCIISTASLSSTMGGGSSHAYCGSKHAVLGLTRNLAVELGQFGIRVNCLSPFGLPTPLAKKFTGIENDEDLANGIERAGNLKGTKLRIEDVANAALFLASDEAQYVSGQNLFIDGGFSVCNSAIKLFQYPDS
# modifications: Forsythia x intermedia
# B2: SMDEHY133: protein (SEQ ID NO:2) encoded by engineered cDNA clone DEHY133 (SEQ ID NO:1) (protein)
# chain: MQLRTAFARRLEGKVALITGGASGIGETTAKLFSQHGAKVAIADVQDELGHSVVEAIGTSNSTYIHCDVTNEDGVKNAVDNTVSTYGKLDIMFSNAGISDPNRPRIIDNEKADFERVLSVNVTGVFLCMKHAARVMIPARSGNIISTASLSSTMGGGSSHAYCGSKHAVLALTRNLAVELGQFGIRVNCLSPFGLPTALGKKFSGIKNEEEFENVINFAGNLKGPKFNVEDVANAALYLASDEAKYVSGHNLFIDGGFSVCNSVIKVFQYPDS
# modifications: Forsythia x intermedia
# B3: SMDEHY321: protein (SEQ ID NO:4) encoded by cDNA clone SEQ ID NO:3 (protein)
# chain: MAATSQVLTAIARRLEGKVALITGGASGIGETTAKLFSQHGAKVAIADVQDELGHSVVEAIGTSNSTYIHCDVTNEDGVKNAVDNTVSTYGKLDIMFSNAGISDPNRPRIIDNEKADFERVFSVNVTGVFLCMKHAARVMIPARSGNIISTASLSSTMGGGSSHAYCGSKHAVLGLTRNLAVELGQFGIRVNCLSPFGLPTALGKKFSGIKNEEEFENVINFAGNLKGPKFNVEDVANAALYLASDEAKYVSGHNLFIDGGFSVCNSVIKVFQYPDS
# modifications: Forsythia x intermedia
# Columns and labels:
# [1] = target: T1, pinoresinol/lariciresinol reductase; settings: incubation with (±)-pinoresinols in presence of NADPH; cited from earlier work
# [2] = target: HIV reverse transcriptase (Human immunodeficiency virus type 1 group M subtype B, UniProt P04585); settings: cited from earlier work
# cAMP-phosphodiesterase = settings: cited from earlier work
# [3] = target: T2, secoisolariciresinol dehydrogenase (Forsythia intermedia, UniProt Q94KL7, F122L/G175A/I11F); assay: Dehydrogenase activity of recombinant enzyme expressed in E. coli; type: biochemical; settings: crude supernate of E. coli expressing DEHY133
# T2 construct: The dehydrogenase coding region was also excised using the Nde I sites at the 5′ and 3′ ends and cloned into the SBET vector; made in house; host or cells: E. coli B834(DE3), SBET vector
# Description: (§1) Secoisolarciresinol dehydrogenase activity was assayed by monitoring the formation of (−)-[9′-^3H2]matairesinol. Each assay consisted of NAD (50 mM in 0.1 M potassium phosphate buffer, pH 7, 5 μl), (±)-[9,9′-^3H2]secoisolariciresinols (28 nM, 130 MBq/mmol in ethanol, 5 μl) and buffer (50 mM Tris-HCl, pH 8.8, 470 μl ). The enzymatic reaction was initiated by addition of the enzyme preparation (20 μl). After 1 h incubation at 30° C. with shaking, the mixture was extracted with EtOAc (500 μl ×2) containing unlabelled (±)-matairesinols (200 μg) as radiochemical carriers. After centrifugation (13,800×g, 5 min) the EtOAc solubles were removed, evaporated to dryness in vacuo, reconstituted in MeOH:3% acetic acid in H2O (1:1, 200 μl), and an aliquot (20 μl) subjected to reversed-phase column chromatography. The elution conditions were as follows: linear gradient acetonitrile/3% acetic acid in H2O from 10:90 to 30:70 between 0 and 35 min; then to 5:95 in 5 min and finally isocratic at 5:95 for 5 min, at a flow rate of 1 ml min^−1, and detection at 280 nm. Fractions corresponding to matairesinol were individually collected, aliquots removed for liquid scintillation counting, and the remainder freeze-dried.
# (§2) [9′-^3H2]Matairesinol (0.5 kBq), collected after reversed-phase column chromatography, was reduced with LiAlH4 to give [9′-^3H2]secoisolariciresinol (0.26 kBq).
# (§3) The E. coli culture containing the dehydrogenase clone was grown at 37° C. in 25 ml of SOC Kn50 medium to an O.D. of 0.5. To this was added IPTG to give a final concentration of 0.5 mM and the culture was grown at 18° C. for an additional 20 h. The cells were pelleted at 600×g 4° C. 12 min, resuspended in 5 ml of 20 mM Tris-HCl pH 8.0, 5 mM DTT buffer and repelleted. The final bacterial pellet was resuspended in 200 μL of the above buffer and sonicated 4×15 sec using a Braun-Sonic 2000 sonicator set at maximal output of −0.64. The sample was then centrifuged 20,800 ×g 4° C. 15 min and the crude supernate was assayed for dehydrogenase activity. […] The clone SMDEHY631 (SEQ ID NO:9) was also expressed in E. coli in the foregoing manner.
# HIV-1 = settings: cited from earlier work
# [4] = target: T3, secoisolariciresinol dehydrogenase (Forsythia intermedia, UniProt Q94KL7); assay: Dehydrogenase activity of recombinant enzyme expressed in E. coli; type: biochemical; settings: protein produced in E. coli
# T3 construct: The dehydrogenase coding region was also excised using the Nde I sites at the 5′ and 3′ ends and cloned into the SBET vector; made in house; host or cells: E. coli B834(DE3), SBET vector
# Description: as §1, §2, §3
molecule,measurement,setting,value
"COc1cc(C2OCC3C(c4ccc(O)c(OC)c4)OCC23)ccc1O (single isomer, unassigned; (+)) [(+)-pinoresinol]",served as substrate of recombinant pinoresinol/lariciresinol reductase,[1],served as substrates
COc1cc(C[C@H]2CO[C@H](c3ccc(O)c(OC)c3)[C@H]2CO)ccc1O [(+)-lariciresinol],served as substrate of recombinant pinoresinol/lariciresinol reductase,[1],served as substrates
COc1cc(C[C@H]2C(=O)OC[C@@H]2Cc2ccc(OC)c(OC)c2)ccc1O [(−)-arctigenin],effectiveness against HIV due to reverse transcriptase inhibitory activity,[2],effective against HIV
COc1cc(C[C@H]2COC(=O)[C@@H]2Cc2ccc(O)c(OC)c2)ccc1O [matairesinol],inhibition of cAMP-phosphodiesterase,cAMP-phosphodiesterase,inhibit
CC(Cc1ccc(O)c(O)c1)C(C)Cc1ccc(O)c(O)c1 (stereo not shown) [nordihydroguaiaretic acid],effectiveness against HIV due to reverse transcriptase inhibitory activity,[2],effective against HIV
(+)-secoisolariciresinol [(+)-antipode of secoisolariciresinol],conversion as substrate into (−)-lactol and (−)-matairesinol,[3],did not serve as a substrate
(−)-pinoresinol,served as substrate of recombinant pinoresinol/lariciresinol reductase,[1],not
(−)-secoisolariciresinol,conversion as substrate into (−)-lactol and (−)-matairesinol,[3],catalyzed the conversion
(−)-trachelogenin,effectiveness against HIV due to reverse transcriptase inhibitory activity,[2],effective against HIV
same,inhibition of in vitro replication of HIV-1,HIV-1,inhibits
B1,catalysis of conversion of (−)-secoisolariciresinol into (−)-matairesinol by protein of the clone,[4],catalyzed the stereochemical conversion
B2,catalysis of conversion of (−)-secoisolariciresinol into (−)-matairesinol by protein of the clone,[4],catalyzed the stereochemical conversion
B3,catalysis of conversion of (−)-secoisolariciresinol into (−)-matairesinol by protein of the clone,[4],catalyzed the stereochemical conversion
